# Article PMC9243584, “Population Pharmacokinetics of Colistin Sulfate in Critically Ill Patients: Exposure and Clinical Efficacy” (Frontiers in Pharmacology, 2022)
# Counter-ions that a name gives are not always drawn. Like-named read-outs stand apart in the source and are kept apart here. Positions of bridges follow the written chain, without caps; N, C: chain ends. Non-standard residues stand in square brackets, D forms with d. Residues, ends and D or L forms follow the SMILES beside them. *: point of attachment. X1 = CC[C@H](C)CCCCC(=O)*; Dab = NCC[C@H](N)C(=O)O
# Legend:
# [1] = test system: CRO; details: retrospective study, Chinese patients with CRO infections, median daily dose 1.72 mg/kg; ref Lu et al. (2021); cited from earlier work
# Description: (§1) It should be noted that the currently used colistin sulfate in China was reapproved for clinical use by the Chinese National Medical Products Administration (NPMA) in 2018. Thus, modern pharmacological data including the clinical efficacy and side effects have not been reported. […] The clinical efficacy of colistin sulfate in the current study was similar to the efficacy of polymyxin B reported by [Lu et al. (2021]), who performed a retrospec ...
# [2] = ref Han et al., 2022; cited from earlier work
# Description: as §1, with “... || Nephrotoxicity is the main toxicity of concern with the treatment of polymyxins. However, it is amazing that no patient developed colistin sulfate-related nephrotoxicity in our study. […] Considering that polymyxin B and colistin have very similar molecular structures and PK characteristics, it is reasonable to conclude that the safety threshold of nephrotoxicity of colistin sulfate approaches that of polymyxin B. In the current study, most patient ...” for “...”
# [3] = set-up: method as in 2 sources, one per row (each row's own in cited_ref): ref Yu et al., 2021 ||| ref Wang et al., 2020; details: cited from earlier work
# [4] = critically ill patients, ref Cheah et al., 2015, cited from earlier work
# [5] = test system: isolates with lower MIC values (≤2 μg/ml); details: isolates with MIC ≤2 μg/ml for both compounds; ref Sader et al., 2015; cited from earlier work
# Description: as §1
# [6] = Population pharmacokinetic modeling (NONMEM) of intravenous colistin sulfate from plasma concentrations in critically ill patients; format: in vivo, human
# Description: This retrospective, observational study was designed in accordance with the Declaration of Helsinki and was approved by the Ethical Committees of the First Affiliated Hospital of Wenzhou Medical University, China ([2022]036). Adult patients receiving colistin sulfate for confirmed multi-resistant Gram-negative bacterial infections from January 2020 to December 2021 at the First Affiliated Hospital of Wenzhou Medical University were selected. The inclusion criteria were as follows: a) ≥18 years of age; b) receiving colistin sulfate (Shanghai New Asia Pharmaceuticals, Shanghai, China) for at least 3 days; and c) at least one plasma concentration of colistin was collected.
# The decision to administer colistin sulfate and its dosing regimen (dose amount, dosing interval, ways of administration, and treatment duration) was made by the attending physician. A loading dose of 1 million IU and a daily dose of 1.5 million IU divided into 2–3 times (maintenance dose) administered using an intravenous drip was recommended by the label sheet of colistin sulfate. In addition, for patients with pulmonary infection, inhalation of colistin sulfate (250,000 IU q12 h) was combinedly used; for patients with intracranial infection, colistin sulfate (50,000 IU q24 h) administered by the intraventricular/intrathecal (IVT/IT) route was combinedly used.
# Plasma samples of colistin sulfate were collected after reaching the steady-state (attained after at least six doses). Dates and exact time of colistin sulfate administration and plasma sample collection were able to be indexed from the medical records. Plasma samples were separated by centrifugation for 5 min at 15,000 rpm immediately after sampling. The quantification of plasma concentration of colistin sulfate was performed using a validated high-performance liquid chromatography-tandem mass spectrometry assay ([Gobin et al., 2010]). The calibration ranges for colistin were 0.1–20 μg/ml. The method validations including calibration curve, selectivity, accuracy, precision, matrix effect, recovery, and stability met the requirement of FDA principles.
# PopPK analysis was performed using the nonlinear mixed-effects modeling program NONMEM (version 7.4, Icon Development Solutions, Ellicott City, MD, USA) and Pirana (version 2.9.7). R (version 3.6.0) and Xpose (version 4.3.2) software packages were applied to generate diagnostic plots.
# One- and two-compartment structural models with first-order elimination were explored for the concentration–time profiles of colistin sulfate. Between-subject variability (BSV) was assessed using an exponential function. Residual variability was assessed using additive, proportional, or combined (additive plus proportional) error models. The base model was selected based on the visual inspection of diagnostic plots and goodness-of-fit criteria, including precision and plausibility of parameter estimation and improvement of the objective function value (OFV).
# Relationships between individual empirical Bayesian estimates of PK parameters and patient covariates were examined visually. Covariates were included using a stepwise forward selection process until no further decrease in OFV was observed. All of the significant covariates were then incorporated into the basic model to construct a full model. The included covariates were further assessed using backward elimination. The additional criterion for retaining the covariate in the final model was the decrease in the unexplained BSV and increase in PK parameter estimate precision.
# Goodness-of-fit plots, nonparametric bootstrap, and visual predictive check were performed to evaluate the final model and parameter estimates. A nonparametric bootstrap procedure was conducted to assess the performance and stability of the final model. Random sampling with replacement was utilized to generate 1,000 replicate datasets using the individual as the sampling unit. […]
# [7] = Acute kidney injury (RIFLE criteria) and colistin sulfate-related nephrotoxicity (Naranjo criteria); format: in vivo, human; details: 42 patients, not considered colistin's nephrotoxicity by Naranjo criteria
# Procedure: Acute kidney injury (AKI) during the treatment of colistin sulfate was assessed using RIFLE criteria. AKI was defined as a 1.5-fold or more increase in serum creatinine and/or a decrease in the glomerular filtration rate (GFR) of 25% or more ([Han et al., 2022]). The definition of nephrotoxicity caused by colistin sulfate was further confirmed using the Naranjo criteria.
Molecule,patients who achieved clinical success [1] [%],Cmin to prevent polymyxin B-related nephrotoxicity [2],"median CL ([3]; Chinese adult patients, ref Wang et al., 2020) [L/h]","CL ([3]; mean ± SD, adult critically ill patients, 112 concentrations from 32 patients, ref Yu et al., 2021, SD) [L/h]","V ([3]; one-compartment model, adult critically ill patients, ref Yu et al., 2021) [L]",plasma unbound fraction [4],plasma unbound fraction ([4]; listed as colistin),potency compared with polymyxin B [5],"CrCL on CL (θ1) ([6]; final model, covariate coefficient in CL = 0.994 + 0.525×CrCL/66.47)","TVV (typical value of volume of distribution) ([6]; final model, one-compartment) [L]","TVCL (typical value of clearance) ([6]; final model, one-compartment, CL = 0.994 + 0.525×CrCL/66.47) [L/h]","clearance ([6]; human, plasma, iv, base model (Table S1), read-out: TVCL (converted)) [mL/min]","Vd ([6]; human, plasma, iv, base model (Table S1), read-out: TVV) [L]","Vd ([6]; human, plasma, iv, final model, one-compartment, read-out: TVV (typical value of volume of distribution)) [L]","clearance ([6]; human, plasma, iv, mean ± SD across all 42 patients, SD, read-out: CL, individual empirical Bayesian estimate (converted)) [mL/min]","AUC(0-t) ([6]; human, plasma, iv, mean ± SD, MAP Bayesian estimate per patient with the final PK model, SD, read-out: AUC (AUC0-24 at steady state, AUC0-24,ss)) [ng·h/mL]",patients who developed AKI during the treatment [7]
polymyxin B sulfate,57.6,below 3.13 mg/L,1.78,1.75,20.5,,,,,,,,,,,,
CC[C@H](C)CCCCC(=O)N[C@@H](CCN)C(=O)N[C@H](C(=O)N[C@@H](CCN)C(=O)N[C@H]1CCNC(=O)[C@H]([C@@H](C)O)NC(=O)[C@H](CCN)NC(=O)[C@H](CCN)NC(=O)[C@H](CC(C)C)NC(=O)[C@@H](CC(C)C)NC(=O)[C@H](CCN)NC1=O)[C@@H](C)O [colistin sulfate] (X1-[Dab]T[Dab][Dab][Dab][dL]L[Dab][Dab]T; lactam 4-C),,,,,,0.5,about 0.5,slightly greater potency than polymyxin B,0.525,20.7,0.994,27.2,20.6,20.7,29,39400 ± 14500,two
